Test results published in US20240226158A9, “ADMINISTRATION OF TUMOR INFILTRATING LYMPHOCYTES WITH MEMBRANE BOUND INTERLEUKIN 15 TO TREAT CANCER” (OBSIDIAN THERAPEUTICS, INC., priority 2021, published 2024).

Tested on: IL15 signaling pathway (pSTAT5, pS6)
Experiment: phospho-flow cytometry assay of IL15 expression and signaling
Format: cell-based, human
Conditions: regulated mbIL15 TILs, 18 hours, 4 donors
Method: Pre-REP TILs were prepared similarly to the methods of Example 1-3 and 9, and unengineered and mbIL15 TIL generated accordingly as described in Examples 1-3 and 9. Engagement of the IL15 signaling pathway results in phosphorylation of signal transducers downstream, including the transcription factor protein STATS and ribosomal protein S6. […] Next, the regulated mbIL15 TILs were regulated for 18 hours in the presence of a range of concentrations of ACZ including 0.1, 1, 2.5, 5, 10, 25, 100 μM, as well as vehicle control. The regulated mbIL15 TILs were then collected for staining and FACS analysis.
Briefly, cells were stained using antibodies for CD3, CD4, CD8, IL15 and a Live/Dead marker. Then cells were fixed in 2% formaldehyde (BD Cytofix) and permeabilized using a methanol-based buffer (BD Phospho Perm III Buffer) before staining with antibodies specific for phosphorylated STATS (Biolegend) and S6 (Cell Signaling Technology). Cells were acquired on the BD Symphony and analyzed using FlowJo software.
In order to compare different strategies for IL15 expression, TILs were utilized that constitutively express mbIL15 and regulated mbIL15 TILs. Cryopreserved unengineered TILs, constitutive mbIL15 TILs, and regulated mbIL15 TILs, from three human donors were thawed and then rested in ACZ-free media for 24 hours. […] Cells were acquired on the BD Fortessa and analyzed using FlowJo software.

CC(=O)Nc1nnc(S(N)(=O)=O)s1 [ACZ, acetazolamide]
relationship between ACZ and IL15 expression and signaling (pSTAT5, pS6): dose-dependent relationship
